For one data set, the system named is HepG2 cells. In words: in vitro. It counts as cell-based, human. Particulars: HepG2+HBV 1.2X; With DFO; Concentration 0 μM. Here is the method:
(§1) Supplementary Fig. 11. Effect of FBS serum iron level on Huh-7, HepG2, and HepG2.2.15 cell
(§2) a Cells were maintained in medium supplemented with 2% FBS or 10% FBS for 1 day and treated with
(§3) After 6 days, cytotoxicity was measured. b Cells were treated with
(§4) the ± SD. *p < 0.05 by unpaired two-tailed Student’s t-test.

For the next data set, the system named is HepG2.2.15 cells. As to conditions: HepG2.2.15; With DFO; Concentration 0 μM.
A further data set has as its system Huh-7 cells. In words: in vitro. It counts as cell-based, human. As to conditions: Huh7+HBV 1.2X; With DFO; Concentration 0 μM. Here is the method:
as §1, §2, §3, §4

In data set [1] the test system is HBV (genotype D) in PXB mice. Particulars: for ALT(ng/mL), Sample1-3 / HBeAg(Signal to control ratio), Sample1-3 / HBsAg(ng/mL), Sample1-3 / Human albumin(g/dL), Sample1-3: individual samples.
For data set [2], the system named is HBV cccDNA in Huh-7-NTCP cells. In words: In vitro HBV infection model, Huh-7-NTCP cells: intracellular cccDNA. As to conditions: Huh-7-NTCP.
Procedure: (§5) HepG2 and Huh-7 cells permanently expressing NTCP were generated by infecting them with an NTCP-encoding recombinant retrovirus and isolating GFP-expressing cells.
(§6) The isolated intracellular HBV DNA was subjected to PCR with an HBV DNA primer and probe set (Supplementary Table 1). cccDNA was isolated by the Hirt extraction method[54]. Briefly, the cells were lysed in SDS lysis buffer (50 mM Tris-HCl, pH 8.0, 10 mM EDTA, 150 mM NaCl, 1% SDS), and the lysates were mixed with KCl to a final concentration of 0.5 M. After incubation at 4 °C for 30 min, each lysate was centrifuged and the supernatant was extracted three times with phenol and once with chloroform. The DNA was then recovered by ethanol precipitation, and treated with T5 nuclease (10 U per μg for 0.5 h, M0363, New England Biolabs), and the enzyme was subsequently heat-denatured at 70 °C. The isolated cccDNA was subjected to PCR with a cccDNA primer and probe set (Supplementary Table 1).
(§7) HepG2-NTCP and Huh-7-NTCP cells were cultured in 12-well plates with the indicated compound(s) for 4 h, after which the cells were infected with HBV particles (10^7 viral genome equivalent per mL, genotype D) and treated with the indicated compound(s) for another 16 h. […]
(§8) Quantitative PCR with an HBV DNA primer and probe set was used to measure intracellular
(§9) cccDNA. The data are expressed as means ± SDs. […]
Data set [3] concerns HBV replicative plasmid pAAV-HBV1.2× in C57BL/6 mice. In words: Hydrodynamic injection mouse model (pAAV-HBV1.2×, C57BL/6 mice). In kind it is in vivo. Particulars: for HBsAg, Sample1-5: single samples.
The subject of data set [4] is HBV cccDNA in HepG2-NTCP cells. In words: In vitro HBV infection model, HepG2-NTCP cells: intracellular cccDNA. As to conditions: HepG2-NTCP.
Procedure: as §5, §6, §7, §8, §9
The data set “crystal structure” deals with the molecule itself. In words: crystal structure.
Where [5] appears, read: 5 mg per kg oral daily, by day 5.

Experimental findings from publication PMC6522524 (Nature Communications, 2019) are described below.

For orientation: stoichiometry N means a count of units in the complex or per binding partner.

“And” between values parts separate entries of the source, which are not always exact repeats. Equal values may be shown once. Read-outs that look alike come from different tables or passages of the source.

Turning to `CC(=O)N(O)CCCCCNC(=O)CCC(=O)N(O)CCCCCNC(=O)CCC(=O)N(O)CCCCCN` [DFO], the “Cell viability(%), AVERAGE, DFO alone” value was found to be 98.1893% with HepG2 cells, 97.6681% in the data set with HepG2.2.15 cells and 97.5263% with Huh-7 cells.
Consider `C[C@H](Cn1cnc2c(N)ncnc21)OCP(=O)(O)O` [TDF, tenofovir], for which the “intrahepatic cccDNA” value in data set [1] (5 mg per kg oral daily, by week 5) is on record as “significantly reduced the amount of intrahepatic cccDNA”. Moreover, the HBeAg levels entry in data set [1] (5 mg per kg oral daily, by week 5, compared to control) is reported as “significantly decreased HBeAg levels”. The “cccDNA, individual samples” value in data set [1] (Figure 7g, Sample1-3) was 0.17 log copies/cell and 0.21 log copies/cell and 0.12 log copies/cell. Also, in data set [1] (Figure 7g, average of 3 samples), the “cccDNA, AVERAGE” value amounted to 0.166 log copies/cell. For the same molecule, in data set [1] (mouse, in vivo), the “Serum HBV DNA, AVERAGE” value was 4.377 log copies/mL; the “Serum HBV DNA, individual samples” value was 4.385 log copies/mL and 3.759 log copies/mL and 4.998 log copies/mL. In addition, the “Serum ALT levels” value in data set [1] (mouse, in vivo, po) was “decreased”. Also, in data set [1] (week 0), the “ALT(ng/mL), AVERAGE” value turned out to be 115.048 ng/mL; the “HBeAg(Signal to control ratio), AVERAGE” value is on record as 3.779 Signal to control ratio; the “HBsAg(ng/mL), AVERAGE” value amounted to 399.9 ng/mL; the “Human albumin(g/dL), AVERAGE” value was 4.601 g/dL. Besides, in data set [1] (week 0), the “ALT(ng/mL), Sample1-3” value was 115.042 ng/mL and 132.129 ng/mL and 97.9737 ng/mL; the “HBeAg(Signal to control ratio), Sample1-3” value is 3.7788 Signal to control ratio and 3.545 Signal to control ratio and 4.013 Signal to control ratio; the “HBsAg(ng/mL), Sample1-3” value is 400.008 ng/mL and 382.767 ng/mL and 416.907 ng/mL; the “Human albumin(g/dL), Sample1-3” value was 4.6008 g/dL and 4.367 g/dL and 4.835 g/dL. In addition, in data set [1] (week 1), the “ALT(ng/mL), AVERAGE” value is on record as 115.048 ng/mL; the “HBeAg(Signal to control ratio), AVERAGE” value is 3.705 Signal to control ratio; the “HBsAg(ng/mL), AVERAGE” value stood at 397.7 ng/mL; the “Human albumin(g/dL), AVERAGE” value was found to be 4.701 g/dL. Besides, in data set [1] (week 1), the “ALT(ng/mL), Sample1-3” value is 115.042 ng/mL and 132.61 ng/mL and 97.4937 ng/mL; the “HBeAg(Signal to control ratio), Sample1-3” value is 3.705 Signal to control ratio and 3.582 Signal to control ratio and 3.828 Signal to control ratio; the “HBsAg(ng/mL), Sample1-3” value is 397.708 ng/mL and 379.982 ng/mL and 415.082 ng/mL; the “Human albumin(g/dL), Sample1-3” value was 4.7008 g/dL and 4.578 g/dL and 4.824 g/dL. In data set [1] (week 2), the “ALT(ng/mL), AVERAGE” value stood at 67.3429 ng/mL; the “HBeAg(Signal to control ratio), AVERAGE” value was 3.6862 Signal to control ratio; the “HBsAg(ng/mL), AVERAGE” value is reported as 390.5 ng/mL; the “Human albumin(g/dL), AVERAGE” value worked out at 4.6007 g/dL. Moreover, in data set [1] (week 2), the “ALT(ng/mL), Sample1-3” value is 67.3361 ng/mL and 86.0047 ng/mL and 48.688 ng/mL; the “HBeAg(Signal to control ratio), Sample1-3” value was 3.6863 Signal to control ratio and 3.541 Signal to control ratio and 3.831 Signal to control ratio; the “HBsAg(ng/mL), Sample1-3” value is 390.508 ng/mL and 371.671 ng/mL and 408.971 ng/mL; the “Human albumin(g/dL), Sample1-3” value is 4.6008 g/dL and 4.456 g/dL and 4.746 g/dL. In data set [1] (week 3), the “ALT(ng/mL), AVERAGE” value came out at 35.9023 ng/mL; the “HBeAg(Signal to control ratio), AVERAGE” value is reported as 3.392 Signal to control ratio; the “HBsAg(ng/mL), AVERAGE” value was 386.5 ng/mL; the “Human albumin(g/dL), AVERAGE” value amounted to 4.4 g/dL. In data set [1] (week 3), the “HBeAg(Signal to control ratio), Sample1-3” value is 3.3922 Signal to control ratio and 2.738 Signal to control ratio and 4.046 Signal to control ratio; the “HBsAg(ng/mL), Sample1-3” value is 386.508 ng/mL and 366.308 ng/mL and 406.308 ng/mL; the “Human albumin(g/dL), Sample1-3” value is 4.4008 g/dL and 3.746 g/dL and 5.054 g/dL. In addition, in data set [1] (week 4), the “ALT(ng/mL), AVERAGE” value amounted to 31.5198 ng/mL; the “HBeAg(Signal to control ratio), AVERAGE” value was 3.246 Signal to control ratio; the “HBsAg(ng/mL), AVERAGE” value was 375.5 ng/mL; the “Human albumin(g/dL), AVERAGE” value is recorded as 4.601 g/dL. In data set [1] (week 4), the “HBeAg(Signal to control ratio), Sample1-3” value is 3.2465 Signal to control ratio and 2.922 Signal to control ratio and 3.57 Signal to control ratio; the “HBsAg(ng/mL), Sample1-3” value was 375.508 ng/mL and 355.54 ng/mL and 395.08 ng/mL; the “Human albumin(g/dL), Sample1-3” value is 4.6008 g/dL and 4.276 g/dL and 4.924 g/dL. Further, in data set [1] (week 5), the “ALT(ng/mL), AVERAGE” value is given as 19.0197 ng/mL; the “HBeAg(Signal to control ratio), AVERAGE” value is listed as 3.146 Signal to control ratio; the “HBsAg(ng/mL), AVERAGE” value turned out to be 370.7 ng/mL; the “Human albumin(g/dL), AVERAGE” value came to 4.801 g/dL. Besides, in data set [1] (week 5), the “HBeAg(Signal to control ratio), Sample1-3” value is 3.1465 Signal to control ratio and 2.933 Signal to control ratio and 3.359 Signal to control ratio; the “HBsAg(ng/mL), Sample1-3” value is 370.708 ng/mL and 351.467 ng/mL and 389.567 ng/mL; the “Human albumin(g/dL), Sample1-3” value was 4.8008 g/dL and 4.588 g/dL and 5.014 g/dL. The “cccDNA levels” value in data set [2] was “reduced cccDNA levels”. Further, in data set [3] (setting [5]), the “HBV core protein levels in the liver” value is reported as “reduced HBV core protein levels in the liver” and the “serum HBV DNA levels” value was “significantly lowered serum HBV DNA levels”. In data set [3] (day 2), the “HBsAg, AVERAGE” value was found to be 271.658 ng/mL; the “HBsAg, Sample1-5” value was 271.684 ng/mL and 284.96 ng/mL and 258.424 ng/mL and 258.29 ng/mL and 284.933 ng/mL. Also, in data set [3] (day 3), the “HBsAg, AVERAGE” value stood at 286.73 ng/mL; the “HBsAg, Sample1-5” value is 286.759 ng/mL and 301.375 ng/mL and 272.159 ng/mL and 272.011 ng/mL and 301.346 ng/mL. Also, in data set [3] (day 4), the “HBsAg, AVERAGE” value was 300.864 ng/mL; the “HBsAg, Sample1-5” value is 300.869 ng/mL and 303.445 ng/mL and 298.296 ng/mL and 298.27 ng/mL and 303.44 ng/mL. Moreover, in data set [3] (day 5), the “HBsAg, AVERAGE” value is on record as 301.678 ng/mL; the “HBsAg, Sample1-5” value was 301.701 ng/mL and 312.285 ng/mL and 291.119 ng/mL and 291.012 ng/mL and 312.273 ng/mL. Also, the “cccDNA levels” value in data set [4] was “reduced cccDNA levels”.

B1: Cp149-Y132A (Y132A mutant of Cp149) (domain or fragment)
chain: MDIDPYKEFGATVELLSFLPSDFFPSVRDLLDTAAALYRDALESPEHCSPHHTALRQAILCWGDLMTLATWVGTNLEDPASRDLVVSYVNTNVGLKFRQLLWFHISCLTFGRETVLEYLVSFGVWIRTPPAARPPNAPILSTLPETTVV
notes: source: E. coli BL21 (DE3), purified (Ni-NTA, thrombin, HiTrap Q anion exchange)
Regarding B1, the “stoichiometry N” value in the data set “crystal structure” turned out to be 6.
